Assay results from ChEMBL document CHEMBL2086374, “C-Glucosylated malonitrile as a key intermediate towards carbohydrate-based glycogen phosphorylase inhibitors” (Bioorg Med Chem, 2012).

Columns and labels:
[1] = molecular target: T1, Glycogen phosphorylase, muscle form (Oryctolagus cuniculus) (UniProt P00489); experiment: Inhibition of rabbit skeletal muscle glycogen phosphorylase-B using glucose-1-phosphate substrate assessed as […] in phosphate release at 1000 uM
T1 sequence (whole entry): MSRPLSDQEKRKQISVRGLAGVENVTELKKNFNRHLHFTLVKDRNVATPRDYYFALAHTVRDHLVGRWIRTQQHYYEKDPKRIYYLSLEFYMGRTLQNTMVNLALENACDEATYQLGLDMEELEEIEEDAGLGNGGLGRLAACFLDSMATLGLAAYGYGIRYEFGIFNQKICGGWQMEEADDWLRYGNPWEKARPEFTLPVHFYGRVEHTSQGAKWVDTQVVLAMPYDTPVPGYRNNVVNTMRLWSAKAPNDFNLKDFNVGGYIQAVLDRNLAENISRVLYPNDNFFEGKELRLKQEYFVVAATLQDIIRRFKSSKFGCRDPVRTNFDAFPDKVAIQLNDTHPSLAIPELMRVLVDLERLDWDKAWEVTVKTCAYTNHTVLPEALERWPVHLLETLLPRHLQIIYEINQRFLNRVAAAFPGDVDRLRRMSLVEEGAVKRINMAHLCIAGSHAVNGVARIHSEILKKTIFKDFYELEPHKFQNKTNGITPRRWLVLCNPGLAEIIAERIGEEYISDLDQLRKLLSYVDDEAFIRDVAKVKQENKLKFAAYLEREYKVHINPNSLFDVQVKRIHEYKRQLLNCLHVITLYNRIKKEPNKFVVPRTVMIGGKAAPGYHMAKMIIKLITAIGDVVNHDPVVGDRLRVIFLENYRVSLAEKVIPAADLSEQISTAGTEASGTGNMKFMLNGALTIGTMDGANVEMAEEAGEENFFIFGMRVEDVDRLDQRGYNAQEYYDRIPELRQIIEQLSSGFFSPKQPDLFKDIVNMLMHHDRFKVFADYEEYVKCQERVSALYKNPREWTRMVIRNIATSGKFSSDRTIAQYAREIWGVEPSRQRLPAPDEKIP

[2] = molecular target: T1, Glycogen phosphorylase, muscle form (Oryctolagus cuniculus); experiment: Inhibition of rabbit skeletal muscle glycogen phosphorylase-B using glucose-1-phosphate substrate assessed as […] in phosphate release at 300 uM
[3] = Solubility of compound in water in presence of 20% DMSO; type: physicochemical; details: buffer
[4] = molecular target: T1, Glycogen phosphorylase, muscle form (Oryctolagus cuniculus); experiment: Inhibition of rabbit skeletal muscle glycogen phosphorylase-B using glucose-1-phosphate substrate assessed as […] in phosphate release at 250 uM

`Cc1ccc(-c2noc(C(c3nc(-c4ccc(C)cc4)no3)[C@@H]3O[C@H](CO)[C@@H](O)[C@H](O)[C@H]3O)n2)cc1` gave an inhibition [1] of 39%.
Molecule `O=C1NCC([C@@H]2O[C@H](CO)[C@@H](O)[C@H](O)[C@H]2O)CN1` has an inhibition [1] of 8.5%.
Work on `O=C(NCC(CNC(=O)c1ccc2ccccc2c1)[C@@H]1O[C@H](CO)[C@@H](O)[C@H](O)[C@H]1O)c1ccc2ccccc2c1` yielded an inhibition [2] of 44%.
Work on `O=C(NCC(CNC(=O)c1ccccc1)[C@@H]1O[C@H](CO)[C@@H](O)[C@H](O)[C@H]1O)c1ccccc1` yielded an inhibition [1] of 21%.
For `OC[C@H]1O[C@@H](C(c2nc(-c3ccc4ccccc4c3)no2)c2nc(-c3ccc4ccccc4c3)no2)[C@H](O)[C@@H](O)[C@@H]1O`, the solubility [3] was “Insoluble” and the inhibition [4] was 38%.
